Reference: ChEMBL document CHEMBL5032531, “Hypocholesterolemic Efficacy of Secoisolariciresinol Diglucoside and Its Polymer in Rat” (J Nat Prod, 2021)

How the values were obtained:
Rattus norvegicus [1] = test: Hypocholesterolemic activity in Wistar rat model with high cholesterol diet assessed as reduction in liver lobular inflammation at 6 mg/kg, po qd measured after 23 days by H and E staining assay; assay type: functional; details: time 23 day
Rattus norvegicus [2] = test: Hypocholesterolemic activity in Wistar rat model with high cholesterol diet assessed as reduction of steatosis at 6 mg/kg, po qd measured after 23 days by H and E staining assay; assay type: functional; details: time 23 day
Rattus norvegicus [3] = test: Effect on body weight in Wistar rat model with high cholesterol diet at 6 mg/kg, po qd measured after 23 days; assay type: ADME, organism-based; details: in vivo, 552 h, time 23 day
Rattus norvegicus [4] = test: Effect on body weight gain in Wistar rat model with high cholesterol diet at 6 mg/kg, po qd measured after 23 days relative to control; assay type: ADME, organism-based; details: in vivo, 552 h, time 23 day
Rattus norvegicus [5] = test: Effect on liver weight in Wistar rat model with high cholesterol diet at 6 mg/kg, po qd measured after 23 days; assay type: ADME, organism-based; details: in vivo, 552 h, time 23 day
Rattus norvegicus [6] = test: Effect on Wistar rat model with high cholesterol diet assessed as ratio of liver weight to body weight at 6 mg/kg, po qd measured after 23 days; assay type: ADME, organism-based; details: in vivo, 552 h, time 23 day
Rattus norvegicus [7] = test: Hypocholesterolemic activity in Wistar rat model with high cholesterol diet assessed as amount of Triglycerides in serum at 6 mg/kg, po qd measured after 23 days by microplate reader assay relative to control; assay type: functional; details: time 23 day
Rattus norvegicus [8] = test: Hypocholesterolemic activity in Wistar rat model with high cholesterol diet assessed as amount of Total cholesterol in serum at 6 mg/kg, po qd measured after 23 days by microplate reader assay relative to control; assay type: functional; details: time 23 day
Rattus norvegicus [9] = test: Hypocholesterolemic activity in Wistar rat model with high cholesterol diet assessed as amount of LDL-C in serum at 6 mg/kg, po qd measured after 23 days by microplate reader assay relative to control; assay type: functional; details: time 23 day
Rattus norvegicus [10] = test: Hypocholesterolemic activity in Wistar rat model with high cholesterol diet assessed as amount of HDL-C in serum at 6 mg/kg, po qd measured after 23 days by microplate reader assay relative to control; assay type: functional; details: time 23 day
Rattus norvegicus [11] = test: Hypocholesterolemic activity in Wistar rat model with high cholesterol diet assessed as reduction in liver NAFLD activity score at 6 mg/kg, po qd measured after 23 days by H and E staining assay; assay type: functional; details: time 23 day
Rattus norvegicus [12] = test: Hypocholesterolemic activity in Wistar rat model with high cholesterol diet assessed as reduction of steatosis at 6 mg/kg, po qd measured after 23 days by H and E staining assay relative to control; assay type: functional; design: scale not given: the % may be the effect or the level left; details: time 23 day
Rattus norvegicus [13] = test: Hypocholesterolemic activity in Wistar rat model with high cholesterol diet assessed as liver NAFLD activity score at 6 mg/kg, po qd measured after 23 days by H and E staining assay relative to control; assay type: functional; details: time 23 day

COc1cc(C[C@H](CO[C@@H]2O[C@H](CO)[C@@H](O)[C@H](O)[C@H]2O)[C@@H](CO[C@@H]2O[C@H](CO)[C@@H](O)[C@H](O)[C@H]2O)Cc2ccc(O)c(OC)c2)ccc1O [(+)-SECOISOLARICIRESINOLDIGLUCOSIDE]
Activity (Rattus norvegicus [1]): 1 | Activity (Rattus norvegicus [2]): 1.4 | Activity (Rattus norvegicus [3]): 330 g | Activity (Rattus norvegicus [4]): 32% | Activity (Rattus norvegicus [5]): 10.4 g | Activity (Rattus norvegicus [6]): 31.5 g/kg | Activity (Rattus norvegicus [7]): 15% | Activity (Rattus norvegicus [8]): 10% | Activity (Rattus norvegicus [9]): 14% | Activity (Rattus norvegicus [10]): 24% | Activity (Rattus norvegicus [11]): 2.4 | Activity (Rattus norvegicus [12]): 22.2% | Activity (Rattus norvegicus [13]): 14.3%
